Assays:
Assay type in all cases: biochemical
IAPP [1] = target: T1, IAPP (Homo sapiens, UniProt P10997); experiment: Rate of amyloid fibril formation by Thioflavine T spectroscopy (Example 1); conditions: Thioflavine T fluorescence
T1 sequence (P10997 34-70 limits assumed): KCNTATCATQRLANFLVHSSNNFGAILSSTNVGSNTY
Description: Determination of the Rate of Amyloid Fibril Formation by Thioflavine T Spectroscopy
Detection of ThT fluorescence can be used as a sensitive assay for amyloid fibril formation under different conditions. This assay has been used in experiments to determine the effects of compounds of the invention on amyloid fibril formation.
Human IAPP was dissolved in 40% trifluoroethanol and freeze-dried into conveniently-sized aliquots. IAPP was prepared immediately before the measurements by dissolving in 40% 1,1,1,3,3,3-hexafluoro-2-propanol (HFIP) in water to maintain the peptide in alpha helical conformation and soluble. A stock solution of ThT (2.5 mM) was prepared, 7.9 mg in 10 mL Tris-HCl pH 7.0 and filtered (0.22 μm). Solutions were kept in the dark until use. Fluorescence was examined at 440 nm excitation (slit 5 nm), and emission at 482 nm (slit 10 nm) with stirring. […] of ThT stock (final concentration 62.5 μM) was added to peptide sample and made up to 1 mL in the cuvette. The sample was stirred for 5 min. before taking a reading. Measurements were made at an initial time point (5 min. from sample preparation), at intervals over the next 4-6 h and after overnight incubation at room temperature.

IAPP [2] = target: T1, IAPP; experiment: Circular dichroism analysis of β-sheet conformation (Example 2); parameters: add 10 μL of 10 mg/mL IAPP stock solution (final 100 μg peptide); conditions: changes in ellipticity at 218 nm (β-sheet conformation); peptide:compound 1:10
Description: Circular dichroism analysis was conducted to confirm the activity of certain therapeutic compounds in preventing or inhibiting IAPP-associated fibril formation in accordance with the present disclosure by determining the presence or absence of β-sheet conformation.
The assay, a co-incubation procedure, examines the ability of a compound or substance to inhibit the assembly of amyloid fibrils, e.g., to test for the presence of the amyloidotic b-sheet conformation in the presence of soluble IAPP. Samples are run in the presence and absence (i.e., water alone) of buffering agent, which is done to determine if competitive effects are seen with the ionic buffer (usually phosphate).
Add components used at a molar ratio of 1:10 [peptide:compound]; add 10 μL of 10 mg/mL IAPP stock solution (final 100 μg peptide) to the aqueous solution containing compound to a final volume of 400 μl. The pH of the final assay solution is measured to ensure there is no fluctuation and the spectrum is accumulated using the parameters as shown above.
Add desired amount of compound to achieve a 1:10 molar ratio in 10 mM phosphate buffer, pH 7. Add 10 μL of 10 mg/mL IAPP stock solution (final peptide 100 μg) to the phosphate buffered solution containing the compound and bring to a final volume of 400 μL. The pH of the final assay solution is measured to ensure there is no fluctuation and the spectrum is accumulated using the parameters as shown above.
In both assays, a control sample is run with each test group. This control contains peptide only in water or buffer at a similar final volume of 400 μl. Spectra for the control are collected initially (first run) and at the end of the test (final run) to ensure that the peptide has not undergone extensive aggregation during the course of the assay. Spectra for the controls are used to compare with the measurements obtained with the treated samples.
Make fresh 1 mg/mL stock solution of IAPP in 10 mM phosphate buffer, pH 7. Add desired amount of compound to achieve a 1:10 molar ratio in 10 mM phosphate buffer, pH 7. Incubate for 3 days at room temperature. Make up to final volume of 400 μL with 10 mM phosphate buffer, pH 7. The pH of the final assay solution is measured to ensure there is no fluctuation and the spectrum is accumulated using the parameters as shown above. A similar control is run for comparative purposes.
Plots of the spectra (control and treated) are individually assembled and the changes in ellipticity at 218 nm are examined. This minimum is directly correlated with the amount of peptide in β-sheet conformation present in the sample. Changes in either a positive or negative direction are noted and a relative value (“active” or “not active”) assigned to the compound as a measure of activity.

Human IAPP (hIAPP) = target: T2, Human IAPP (hIAPP) (Homo sapiens, UniProt P10997); experiment: ELISA assay for quantitative determination of fibril formation (Example 4); conditions: for proportion of non-fibrillar IAPP in the supernatant: IAPP 20 μM, inhibitor:IAPP molar ratio 10:1, compared to control
T2 construct: Human IAPP (hIAPP) was synthesised by solid state synthesis (Advanced Biotechnologies, UK); purchased Advanced Biotechnologies, UK; host or cells: chemical solid-phase synthesis
T2 sequence (P10997 34-70 limits assumed): T1 sequence (P10997 34-70 limits assumed)
Description: ELISA Assay for Quantitative Determination of Fibril Formation
Human IAPP (hIAPP) was synthesised by solid state synthesis (Advanced Biotechnologies, UK). Human IAPP forms fibrils immediately in aqueous media. Aliquots of IAPP in water (800 μg/ml) were stored frozen at −20° C. until use. These samples contain small numbers of fibrils visible with electron microscopy (em).
Two sets of samples containing IAPP (20 μM) with or without inhibitors (at a molar ratio of 10:1 with IAPP, (20 μM)) were prepared on day 1 in Tris buffer. One set was centrifuged, the supernatant removed and frozen immediately at −20° C. (Time zero time point). The other set was incubated overnight at room temp with shaking (time 24 h time point). On day 2 these samples were spun and supernatant removed to determine the proportion of non-fibrillar IAPP.
To assay IAPP in the supernatant both sets of samples were serially diluted in bicarbonate coating buffer, added to ELISA wells and incubated overnight. Plates were washed in phosphate buffer containing Tween (PBS/Tw)×3. Diluted antiserum raised against human IAPP was incubated on the plate for 90 minutes at 37° C. Following washing in PBS/Tw, alkaline phosphatase conjugated anti-rabbit antisera was incubated for 90 mins. Following washing in PBS/Tw, alkaline phosphate substrate was added and colour allowed to develop for 30 mins. Optical density was read at 405 nm.
Data from all samples was calculated to determine changes of IAPP concentration in the supernatant induced by the candidate substance immediately (i.e. at time zero) or after 24 h incubation. Data in FIG. 1 is expressed as the proportion of non-fibrillar IAPP in the supernatant of test samples compared to control at both time points.

IAPP [3] = target: T1, IAPP; experiment: Circular dichroic spectroscopy (Example 6)
Description: Circular Dichroic Spectroscopy
Human IAPP was prepared in 100% HFIP at 1 mg/ml filtered through a 0.31 μm filter, freeze dried in aliquots, resuspended in 20% HFIP and water, and filtered before analysis. The circular dichroic spectroscopy was performed in the same manner as described in Hubbard et al (1991) Biochem J, 275, 785-8. Samples were analysed immediately and after 24 h incubation with candidate substances i, iii, iv and x. […] After 24 h incubation the molecular conformation of IAPP (CNTL) was converted to β-conformation. […] This is prevented by the candidate compounds.

[4] = after 24 h incubation, IAPP alone converted to β-conformation

Activity (IAPP [2])	molecular conformation of IAPP (CD spectra) (IAPP [3]; [4])	molecular conformation of IAPP (CD spectra) (IAPP [3]; time zero)	time point at which the increase of non-fibrillar IAPP was greater (Human IAPP (hIAPP); time zero versus time 24 h)	Structure (SMILES)	IAPP-associated fibril assembly (IAPP [1])	proportion of non-fibrillar IAPP in the supernatant (Human IAPP (hIAPP))
–	–	–	–	c1ccc2c(c1)CCNC2 [1,2,3,4-tetrahydroisoquinoline]	inhibit or prevent IAPP-associated fibril assembly	–
Active	–	–	–	O=S(=O)(O)CCCNCCCO [3-(3-hydroxy-1-propyl)amino-1-propanesulfonic acid]	inhibit or prevent IAPP-associated fibril assembly	–
Active	–	–	–	NCC(O)CS(=O)(=O)O (stereo not shown) [3-amino-2-hydroxy-1-propanesulfonic acid]	inhibit or prevent IAPP-associated fibril assembly	–
Active	–	–	–	CN(C)CCCS(=O)(=O)O [3-dimethylamino-1-propanesulfonic acid]	inhibit or prevent IAPP-associated fibril assembly	–
–	–	–	–	COc1ccc(S(=O)(=O)O)c2cccnc12 [8-methoxyquinoline-5-sulfonic acid]	inhibit or prevent IAPP-associated fibril assembly	–
–	–	–	–	O=S(=O)(O)NC1CCCCC1 [cyclohexylsulfamic acid]	inhibit or prevent IAPP-associated fibril assembly	–
–	remained in α-conformation	typical CD spectra for α-conformation	–	O=S(=O)(O)CCCNCCCO [i, 3-(3-hydroxy-1-propyl)amino-1-propanesulfonic acid]	–	increase the proportion of non-fibrillar IAPP in the supernatant
Active	remained in α-conformation	typical CD spectra for α-conformation	–	O=S(=O)(O)NC1CCCCC1 [iv, Cyclohexylsulfamic acid]	–	increase the proportion of non-fibrillar IAPP in the supernatant
–	–	–	–	NCC(O)CS(=O)(=O)O (stereo not shown) [ix, 3-amino-2-hydroxy-1-propanesulfonic acid]	–	increase the proportion of non-fibrillar IAPP in the supernatant
Active	–	–	–	N[C@@H](COP(=O)(O)O)C(=O)O [v, O-Phospho-L-serine]	inhibit or prevent IAPP-associated fibril assembly	increase the proportion of non-fibrillar IAPP in the supernatant
–	remained in α-conformation	typical CD spectra for α-conformation	greater at time zero	CN(C)CCCS(=O)(=O)O [x, 3-dimethylamino-1-propanesulfonic acid]	–	increase the proportion of non-fibrillar IAPP in the supernatant

Structure (SMILES)	Activity (IAPP [2])	molecular conformation of IAPP (CD spectra) (IAPP [3]; [4])	molecular conformation of IAPP (CD spectra) (IAPP [3]; time zero)	time point at which the increase of non-fibrillar IAPP was greater (Human IAPP (hIAPP); time zero versus time 24 h)	IAPP-associated fibril assembly (IAPP [1])	proportion of non-fibrillar IAPP in the supernatant (Human IAPP (hIAPP))
c1ccc2c(c1)CCNC2 [iii, 1,2,3,4-tetrahydroisoquinoline]	Active	remained in α-conformation	typical CD spectra for α-conformation	–	–	increase the proportion of non-fibrillar IAPP in the supernatant
O=S(=O)(O)CCCN1CC=C(c2ccccc2)CC1 [viii, 4-phenyl-1-(3′ sulfopropyl)-1,2,3,6-tetrahydropyridine]	Active	–	–	–	inhibit or prevent IAPP-associated fibril assembly	increase the proportion of non-fibrillar IAPP in the supernatant

Reference: patent US20070015737A1, “Compounds for inhibiting diseases and preparing cells for transplantation” (Neurochem (International) Limited, priority 1999, published 2007)
